Source: article PMC9139979, “Features of ZED1227: The First-In-Class Tissue Transglutaminase Inhibitor Undergoing Clinical Evaluation for the Treatment of Celiac Disease” (Cells, 2022)
Several values for one entry are separate records, joined by “and”; a condition that tells them apart may be missing. Equal values may be shown once. Entries after “also recorded” stand apart in the source; their conditions may differ. Read-outs that look alike come from different tables or passages of the source.

Experiments:
[1] = Solubility in PBS (pH 7.4) and diluted HCl (pH 1.1) by HPLC; format: physicochemical
[2] = logD by shake flask method (octanol/PBS pH 7.4); format: physicochemical
Protocol: The logD value (distribution coefficient) of the compound was determined by means of the shake flask method, measuring the distribution of the solute in octanol and phosphate-buffered saline (PBS, pH 7.4). The concentration of ZED1227 in the immiscible solvents was determined by HPLC (vide supra). The stability in PBS (pH 7.4 or acidified to pH 5.0), in artificial gastric, and intestinal fluid was calculated as the percentage of residual parent compound after incubation for 24 h at 37 °C, using an initial concentration of 100 μM.

[3] = Caco-2 cell permeability assay (CacoReady); format: in vitro ADME; conditions: human, apical 200 μM, HBSS pH 6.5, 1% DMSO
Protocol: The permeability coefficient (Papp value) was obtained from Caco-2 monolayer studies predicting oral/intestinal bioavailability of the tested compound. The assay was performed using CacoReady^TM ready-to-use kits from ReadyCell according to the manufacturer’s protocol. […] The concentration of ZED1227 in the basal and apical media was determined by HPLC. The initial concentration of ZED1227 in the apical medium was 200 μM. Propranolol (20 μM final concentration) was used as a control to validate each ready-to-use plate. Compound stock solutions were prepared in DMSO and further diluted to 1% DMSO using HBSS pH 6.5 to yield the desired working concentration.

Caco-2 cells = experiment: BrdU cell proliferation ELISA, Caco-2; format: cell-based, human; conditions: up to 1,000 μM, 24 h + 24 h
Protocol: Cytotoxicological analysis of ZED1227 was performed using Huh7 (human liver carcinoma, CLS Cell Lines Service GmbH, Eppelheim, Germany) and Caco-2 cells (human epithelial colorectal adenocarcinoma, Sigma Aldrich, Taufkirchen, Germany) with respect to the effect on proliferation and viability, according to the assay protocols provided by the manufacturers of the respective kits. The Cell Proliferation ELISA (BrdU, colorimetric) was purchased from Roche (Mannheim, Germany), whereas the Cell Proliferation and Cytotoxicity Assay EZ4U was purchased from Biomedica (Vienna, Austria). Briefly, Caco-2 cells (in MEM with 1% non-essential amino acid solution, both Sigma Aldrich (Taufkirchen, Germany), 10% fetal bovine serum, 2 mM L-glutamine, 100 U/mL penicillin–streptomycin, all from Gibco) or Huh7 cells (in DMEM low glucose, Sigma Aldrich (Taufkirchen, Germany), 10% fetal bovine serum, 1 mM sodium pyruvate, 100 U/mL penicillin–streptomycin, all from Gibco) were cultured in 96 well plates, using 2.5 μg/mL cycloheximide and 0.2 μg/mL camptothecin-treated cells as positive control. In the 5-bromo-2′-deoxyuridine (BrdU) assay (determination of cell proliferation), the cells were incubated with ZED1227 working solution (1% DMSO in culture medium) up to a concentration of 1,000 μM for 24 h, followed by addition of BrdU into the culture medium and further culturing for 24 h. […]

hFXIII-A2 = target: T1, hFXIII-A2 (Homo sapiens, UniProt P00488); experiment: Fluorescent transamidation assay (DCC-assay), hFXIII-A2; format: biochemical
T1 construct: purchased Zedira T027
T1 sequence (P00488 39-732 limits assumed): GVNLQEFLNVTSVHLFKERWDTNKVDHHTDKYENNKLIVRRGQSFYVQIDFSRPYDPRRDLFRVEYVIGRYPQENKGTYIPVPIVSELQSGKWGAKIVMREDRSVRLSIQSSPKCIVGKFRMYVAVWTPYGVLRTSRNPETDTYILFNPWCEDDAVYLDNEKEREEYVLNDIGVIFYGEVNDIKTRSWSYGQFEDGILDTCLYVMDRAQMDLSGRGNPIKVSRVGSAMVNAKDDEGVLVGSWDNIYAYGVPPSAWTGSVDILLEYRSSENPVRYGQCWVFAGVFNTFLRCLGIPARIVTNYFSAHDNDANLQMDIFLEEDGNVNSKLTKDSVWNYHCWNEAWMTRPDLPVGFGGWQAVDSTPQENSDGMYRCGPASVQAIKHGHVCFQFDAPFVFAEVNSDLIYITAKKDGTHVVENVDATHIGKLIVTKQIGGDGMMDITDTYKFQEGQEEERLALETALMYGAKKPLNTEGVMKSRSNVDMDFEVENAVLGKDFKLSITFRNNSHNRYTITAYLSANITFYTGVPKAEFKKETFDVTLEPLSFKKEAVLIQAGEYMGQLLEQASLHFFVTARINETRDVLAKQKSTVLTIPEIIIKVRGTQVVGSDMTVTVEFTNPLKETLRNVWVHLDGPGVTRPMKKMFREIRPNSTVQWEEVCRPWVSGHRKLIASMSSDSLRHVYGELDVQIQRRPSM

[4] = Reactivity towards thiols (excess glutathione); format: physicochemical; conditions: 160-fold excess GSH, 25 °C, after 48 h
Protocol: To exclude undesired reactions of ZED1227 with biological thiols, an investigation was performed with the tripeptide glutathione (GSH) as a surrogate. ZED1227 (60 μM) was incubated with a 160-fold excess of glutathione (10,000 μM) in aqueous media [containing 7% (v/v) tetrahydrofuran and 13% (v/v) methanol] at ambient temperature (25 °C). The parent compound and the GSH-adduct formed after 48 h were determined by HPLC (vide supra).

[5] = test system: healthy female and male volunteers; experiment: Phase 1 clinical trial in healthy individuals; format: in vivo, human
Protocol: The phase 1 clinical trial involved more than 100 healthy individuals exposed to up to 500 mg of ZED1227. […] Accordingly, the new chemical entity was progressed to a phase 2a clinical study. The efficacy and safety of a 6-week treatment with ZED1227 was assessed in a randomized, double-blind, placebo-controlled, dose-finding trial at three dose levels (10, 50, 100 mg). In this trial, adult patients with well-controlled celiac disease were challenged with 3 g daily gluten intake to assess the protective effect of ZED1227 on the mucosa. […] Based on the promising results a phase 2b study was initiated in celiac disease patients suffering from symptoms despite following a “gluten-free diet”—essentially an adjunct treatment. There will be no gluten challenge in this “real-life” study, which aims to further substantiate the protective effect of ZED1227 and impact on quality of life in celiac disease patients. It remains to be seen whether the promising clinical data obtained so far translate into a viable, commercially successful drug for patient benefit.

With CCC(CC)CNC(=O)Cn1cccc(NC(=O)[C@H](CC/C=C/C(=O)OC)NC(=O)c2cncn2C)c1=O [ZED1227, (S,E)-Methyl 7-(1-(2-(2-ethylbutylamino)-2-oxoethyl)-2-oxo-1,2-dihydropyridin-3-ylamino)-6-(1-methyl-1H-imidazole-5-carboxamido)-7-oxohept-2-enoate] the solubility ([1]; phosphate-buffered saline, aqueous buffer, PBS pH 7.4, read-out: Solubility at pH 7.4) was 100 µM and 50 µg/mL, the solubility ([1]; simulated gastric fluid, diluted HCl pH 1.1, read-out: Solubility at pH 1.1) was 48900 µM and 25900 µg/mL and the logD [2] was 2. For the same compound, the Papp A→B at 200 μM [3] was under 1 ×10⁻⁶ cm/s, the “Cytotoxicity: Proliferation, Caco-2 cells” value (Caco-2 cells) was “nor did it affect cell proliferation rates; also recorded: no effect up to 1,000 μM no effect up to 1,000 μM no effect up to 1,000 μM no effect up to 1,000 μM” and the “Selectivity hFXIII-A2 versus hTG2” value (hFXIII-A2; ratio of app. IC50 values) was over 900 fold. For the same compound, the IC50 (hFXIII-A2; recombinant, thrombin activated, transamidation assay, read-out: App. IC50 hFXIII-A2) was over 50 µM, the “Reactivity towards excess glutathione: parent drug compound recovery” value ([4]; 60 μM compound) was 98% parent drug compound recovery (after 48 h) and the Glutathione-adduct formed [4] was 2%. The “Safety and tolerability, phase 1” value ([5]; more than 100 healthy individuals, up to 500 mg, EudraCT 2014-003044-13 and 2015-005283-42) was “safe and well-tolerated” and the “Overall safety and tolerability, phase 1 and phase 2a” value ([5]; more than 100 healthy volunteers and 123 patients in verum groups) was “safe and well-tolerated”.
